# Data from ChEMBL document CHEMBL1129837, “Quantitative structure-activity relationships of benzoyliminothiadiazoline derivatives as angiotensin II receptor antagonists” (Bioorg Med Chem Lett, 1997).
# Molecular target: T1, Type-1 angiotensin II receptor B (Rattus norvegicus, UniProt P29089)
# T1 sequence (P29089 whole entry): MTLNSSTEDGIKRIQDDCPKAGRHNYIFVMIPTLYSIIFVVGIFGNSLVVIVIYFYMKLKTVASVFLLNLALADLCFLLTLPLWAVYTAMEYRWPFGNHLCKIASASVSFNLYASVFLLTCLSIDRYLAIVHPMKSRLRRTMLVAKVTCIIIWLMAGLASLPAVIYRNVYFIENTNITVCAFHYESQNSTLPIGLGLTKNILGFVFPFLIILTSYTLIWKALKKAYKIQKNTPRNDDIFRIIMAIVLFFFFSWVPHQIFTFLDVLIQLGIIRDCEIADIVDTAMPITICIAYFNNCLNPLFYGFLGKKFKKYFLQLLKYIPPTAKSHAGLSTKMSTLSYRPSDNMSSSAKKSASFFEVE
# Test: Inhibition of binding of [125I]All at the angiotensin II type 1 receptor (AT1 receptor) in rat liver membranes
# Format: cell membranes, Membrane
row,Structure (SMILES),Ki [nM]
1,CCc1nn(Cc2ccc(-c3ccccc3-c3nn[nH]n3)cc2)/c(=N/C(=O)c2ccccc2)s1,36
2,CCc1nn(Cc2ccc(-c3ccccc3-c3nn[nH]n3)cc2)/c(=N/C(=O)c2ccccc2Br)s1,3.47
3,CCc1nn(Cc2ccc(-c3ccccc3-c3nn[nH]n3)cc2)/c(=N/C(=O)c2ccc([N+](=O)[O-])cc2)s1,141
4,CCCc1nn(Cc2ccc(-c3ccccc3-c3nn[nH]n3)cc2)/c(=N/C(=O)c2ccccc2Cl)s1,22
5,CCc1nn(Cc2ccc(-c3ccccc3-c3nn[nH]n3)cc2)/c(=N/C(=O)c2ccccc2C)s1,35.9
6,Cc1nn(Cc2ccc(-c3ccccc3-c3nn[nH]n3)cc2)/c(=N/C(=O)c2ccccc2Cl)s1,18
7,CCc1nn(Cc2ccc(-c3ccccc3-c3nn[nH]n3)cc2)/c(=N/C(=O)c2ccccc2F)s1,7.24
8,CCc1nn(Cc2ccc(-c3ccccc3-c3nn[nH]n3)cc2)/c(=N/C(=O)c2cccc(Cl)c2)s1,190
9,CCCc1nn(Cc2ccc(-c3ccccc3-c3nn[nH]n3)cc2)/c(=N/C(=O)c2ccccc2C(=O)O)s1,2
10,CCc1nn(Cc2ccc(-c3ccccc3-c3nn[nH]n3)cc2)/c(=N/C(=O)c2cccc([N+](=O)[O-])c2)s1,141
11,CCc1nn(Cc2ccc(-c3ccccc3-c3nn[nH]n3)cc2)/c(=N/C(=O)c2ccccc2Cl)s1,3.39
12,CCc1nn(Cc2ccc(-c3ccccc3-c3nn[nH]n3)cc2)/c(=N/C(=O)c2ccccc2OC)s1,2.5
13,CCc1nn(Cc2ccc(-c3ccccc3-c3nn[nH]n3)cc2)/c(=N/C(=O)c2ccc(F)cc2)s1,102
14,O=C(/N=c1\sc(C2CC2)nn1Cc1ccc(-c2ccccc2-c2nn[nH]n2)cc1)c1ccccc1Cl,15.1
15,CCc1nn(Cc2ccc(-c3ccccc3-c3nn[nH]n3)cc2)/c(=N/C(=O)c2cccc(F)c2)s1,134
16,CCc1nn(Cc2ccc(-c3ccccc3-c3nn[nH]n3)cc2)/c(=N/C(=O)c2cccc(C(F)(F)F)c2)s1,447
17,CCc1nn(Cc2ccc(-c3ccccc3-c3nn[nH]n3)cc2)/c(=N/C(=O)c2ccccc2C(=O)O)s1,0.619
18,CCc1nn(Cc2ccc(-c3ccccc3-c3nn[nH]n3)cc2)/c(=N/C(=O)c2ccc(Br)cc2)s1,320
19,CCc1nn(Cc2ccc(-c3ccccc3-c3nn[nH]n3)cc2)/c(=N/C(=O)c2ccccc2[N+](=O)[O-])s1,3.23
20,CCc1nn(Cc2ccc(-c3ccccc3-c3nn[nH]n3)cc2)/c(=N/C(=O)c2ccccc2C(F)(F)F)s1,6
21,CCCCc1nn(Cc2ccc(-c3ccccc3-c3nn[nH]n3)cc2)/c(=N/C(=O)c2ccccc2Cl)s1,200
22,CCc1nn(Cc2ccc(-c3ccccc3-c3nn[nH]n3)cc2)/c(=N/C(=O)c2cccc(Br)c2)s1,300
23,CCc1nn(Cc2ccc(-c3ccccc3-c3nn[nH]n3)cc2)/c(=N/C(=O)c2ccc(C)cc2)s1,48
24,CCc1nn(Cc2ccc(-c3ccccc3-c3nn[nH]n3)cc2)/c(=N/C(=O)c2cccc(C)c2)s1,79.4
25,CCc1nn(Cc2ccc(-c3ccccc3-c3nn[nH]n3)cc2)/c(=N/C(=O)c2ccccc2I)s1,3.86
26,CCc1nn(Cc2ccc(-c3ccccc3-c3nn[nH]n3)cc2)/c(=N/C(=O)c2ccc(Cl)cc2)s1,330
27,CCc1nn(Cc2ccc(-c3ccccc3-c3nn[nH]n3)cc2)/c(=N/C(=O)c2cccc(OC)c2)s1,49
28,CCc1nn(Cc2ccc(-c3ccccc3-c3nn[nH]n3)cc2)/c(=N/C(=O)c2ccc(C(F)(F)F)cc2)s1,557
29,Cc1nn(Cc2ccc(-c3ccccc3-c3nn[nH]n3)cc2)/c(=N/C(=O)c2ccccc2C(=O)O)s1,2.69
30,CCc1nn(Cc2ccc(-c3ccccc3-c3nn[nH]n3)cc2)/c(=N/C(=O)c2ccc(OC)cc2)s1,28
